Measurements: patent US20060173041A1, “Sulphonylpiperidine derivatives containing an aryl or heteroaryl group for use as matrix metalloproteinase inhibitors” (priority 2002, published 2006)

Molecular target: T1, proTNFα convertase enzyme (TACE) (Homo sapiens, UniProt P78536)
T1 construct: partially purified, isolated enzyme assay, the enzyme being obtained from the membranes of THP-1; endogenous in cells; host or cells: THP-1 cell membranes, partially purified as in Mohler et al. (1994) Nature 370:218-220
Assay: partially purified isolated enzyme assay for proTNFα convertase (TACE)
Type: biochemical
Settings: 10 μM of compound; enzyme from membranes of THP-1; 26° C. for 4 hours
Procedure: Recombinant human proMMP13 may be expressed and purified as described by Knauper et al. [V. Knauper et al., (1996) The Biochemical Journal 271:1544-1550 (1996)]. […] Activity is determined by measuring the fluorescence at λex 328 nm and λem 393 nm. Percent inhibition may be calculated as follows: % Inhibition is equal to the [Fluorescenceplus inhibitor−Fluorescencebackground] divided by the [Fluorescenceminus inhibitor−Fluorescencebackground].
The ability of the compounds to inhibit proTNFα convertase enzyme (TACE) has been assessed using a partially purified, isolated enzyme assay, the enzyme being obtained from the membranes of THP-1 as described by K. M. Mohler et al., (1994) Nature 370:218-220. The purified enzyme activity and inhibition thereof was determined by incubating the partially purified enzyme in the presence or absence of test compounds using the substrate 4′,5′-Dimethoxy-fluoresceinyl Ser.Pro.Leu.Ala.Gln.Ala.Val.Arg.Ser.Ser.Ser.Arg.Cys(4-(3-succinimid-1-yl)fluorescein)-NH2 in assay buffer (50 mM Tris HCl, pH 7.4 containing 0.1% (w/v) Triton X-100 and 2 mM CaCl2), at 26° C. for 4 hours. The amount of inhibition was determined as for MMP13 except λex 485 nm and λem 538 nm were used. […]

T1 sequence (P78536 215-824): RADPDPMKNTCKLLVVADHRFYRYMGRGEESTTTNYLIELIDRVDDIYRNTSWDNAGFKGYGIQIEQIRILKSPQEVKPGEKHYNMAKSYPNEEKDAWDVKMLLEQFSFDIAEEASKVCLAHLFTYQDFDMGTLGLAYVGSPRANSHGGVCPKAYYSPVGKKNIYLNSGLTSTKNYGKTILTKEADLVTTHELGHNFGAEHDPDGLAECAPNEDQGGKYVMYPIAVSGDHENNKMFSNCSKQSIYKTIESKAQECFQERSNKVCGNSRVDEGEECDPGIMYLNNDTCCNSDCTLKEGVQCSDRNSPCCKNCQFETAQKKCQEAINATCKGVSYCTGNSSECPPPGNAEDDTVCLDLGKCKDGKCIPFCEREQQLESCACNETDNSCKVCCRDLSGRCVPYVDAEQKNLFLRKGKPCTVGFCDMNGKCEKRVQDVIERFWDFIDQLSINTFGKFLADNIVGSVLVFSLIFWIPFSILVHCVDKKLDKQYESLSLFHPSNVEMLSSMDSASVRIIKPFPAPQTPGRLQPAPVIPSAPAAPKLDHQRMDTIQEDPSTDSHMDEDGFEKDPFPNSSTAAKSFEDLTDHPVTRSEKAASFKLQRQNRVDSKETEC

SMILES	inhibition at 10 µM [%]
CC(C)Oc1ccccc1OC1CCN(S(=O)(=O)CC(c2ccccc2)N(O)C=O)CC1 (racemic) [Example 8, (R/S)-hydroxy(2-{[4-(2-isopropoxyphenoxy)piperidin-1-yl]sulphonyl}-1-phenylethyl)formamide]	81
CC(C)NC(=O)c1ccccc1OC1CCN(S(=O)(=O)CC(c2ccccc2)N(O)C=O)CC1 (racemic) [Example 14]	76
